Source: publication PMC8134483 (Scientific Reports, 2021)
Like-named read-outs stand apart in the source and are kept apart here.

Assays:
[1] = biological target: T1, hCB1R (Homo sapiens, UniProt P21554); test: CB1R bias analysis (operational model, cAMP inhibition vs βarrestin2); assay type: cell-based; conditions: for Observed CB1R bias in cell culture: cAMP inhibition vs βarrestin2
T1 construct: expressed in transfected cells; host or cells: CHO-K1
Method: (§1) Estimates of Ki, EC50, Emin, and Emax were determined using non-linear regression with variable slope (four parameters) (GraphPad, Prism, v. 8.0). […] One-way analysis of variance (ANOVA), followed by Tukey’s post-hoc test, was used for statistical analyses (p < 0.05 determined to be significant); and Bartlett’s test was used to confirm homogeneity of variance (GraphPad).

[2] = test system: male C57Bl/6 mice; test: Catalepsy, ring holding assay; assay type: in vivo; conditions: 0.1–10 mg/kg i.p.; 5 min; % MPE 60 s
Method: (§2) Adult male C57BL/6 mice aged 6–10 weeks (mean weight 24 ± 0.5 g) were purchased from Charles River Labs (Senneville, QC). Animals were group housed (three per cage) with ad libitum access to food, water, and environmental enrichment and maintained on a 12 h light/dark cycle. Mice were randomly assigned to receive i.p. injections of vehicle (1:1:18 ethanol:emulphor:saline) or 0.1–10 mg/kg SCRA (n ≥ 4 per group). All protocols have been described previously and were in accordance with the guidelines detailed by the Canadian Council on Animal Care and approved by the Animal Research Ethics Board and the Scientific Merit Review Committee for Animal Behaviour at the University of Saskatchewan. […]
(§3) Modified tetrad testing (catalepsy, body temperature, tail flick assay) was conducted according to previously described methods, which are summarized briefly here. […] Catalepsy was assessed in the ring holding assay 5 min following injection with mouse forepaws clasped to a 5 mm ring positioned 5 cm above the surface of the testing space. The length of time the ring was held was recorded (s) to a maximum time of 60 s (i.e. MPE = 60 s). Internal body temperature was measured 15 min after injection. Anti-nociception was determined by assessing tail flick latency 20 min after injection. […]

[3] = biological target: T1, hCB1R; test: cell-based; assay type: cell-based; conditions: for EC50: CHO hCB1R, 90 min, value with 95% CI, read-out: CB1R βarrestin2 recruitment EC50; for Emax: read-out: CB1R βarrestin2 recruitment Emax; for βarrestin2 recruitment to CB1R, activity in words: relative to CP55940
[4] = biological target: T1, hCB1R; test: cell-based; assay type: cell-based; conditions: for EC50: CHO hCB1R, 10 µM FSK, 90 min, value with 95% CI, read-out: CB1R cAMP Inhibition EC50; for Emax: read-out: CB1R cAMP Inhibition Emax
[5] = biological target: T2, hCB2R (Homo sapiens, UniProt P34972); test: CB2R bias analysis (operational model, cAMP inhibition vs βarrestin2); assay type: cell-based; conditions: CP55,940 as reference agonist; >0 cAMP bias, <0 βarrestin2 bias
T2 construct: host or cells: CHO-K1 (PathHunter)
T2 sequence (P34972 whole entry): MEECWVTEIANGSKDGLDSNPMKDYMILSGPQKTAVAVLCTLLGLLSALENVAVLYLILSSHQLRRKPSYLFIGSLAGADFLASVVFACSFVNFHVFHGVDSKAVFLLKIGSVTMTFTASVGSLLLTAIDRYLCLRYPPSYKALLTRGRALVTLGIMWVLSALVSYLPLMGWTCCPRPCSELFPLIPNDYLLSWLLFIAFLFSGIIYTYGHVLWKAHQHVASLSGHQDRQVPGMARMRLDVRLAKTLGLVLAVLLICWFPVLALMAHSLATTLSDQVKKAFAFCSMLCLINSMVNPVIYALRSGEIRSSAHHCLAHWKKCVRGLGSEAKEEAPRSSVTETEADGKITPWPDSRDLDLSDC
Method: as §1

[6] = biological target: T2, hCB2R; test: PathHunter βarrestin2 recruitment, CB2R; assay type: cell-based; conditions: for βarrestin2 recruitment to CB2R, activity in words: relative to CP55,940
[7] = biological target: T2, hCB2R; test: [^3H]CP55,940 competition (radioligand displacement) binding to CB2R; conditions: for CB2R [^3H]CP55,940 Emin: bottom of the concentration–response curve, mean ± SEM
[8] = biological target: T2, hCB2R; test: HitHunter inhibition of FSK-stimulated cAMP, CB2R; assay type: cell-based
[9] = test system: male C57Bl/6 mice; test: Elevated plus maze (EPM); assay type: in vivo; conditions: 1.0 mg/kg i.p., 30 min after treatment, 5 min trial; for EPM total arm entries: vs vehicle
Method: Adult male C57BL/6 mice aged 6–10 weeks (mean weight 24 ± 0.5 g) were purchased from Charles River Labs (Senneville, QC). Animals were group housed (three per cage) with ad libitum access to food, water, and environmental enrichment and maintained on a 12 h light/dark cycle. Mice were randomly assigned to receive i.p. injections of vehicle (1:1:18 ethanol:emulphor:saline) or 0.1–10 mg/kg SCRA (n ≥ 4 per group). All protocols have been described previously and were in accordance with the guidelines detailed by the Canadian Council on Animal Care and approved by the Animal Research Ethics Board and the Scientific Merit Review Committee for Animal Behaviour at the University of Saskatchewan. The following steps were taken to ensure our study was in keeping with the ARRIVE guidelines: (1) power analyses were conducted to determine the minimum number of animals required for the study; (2) animals were purchased—rather than bred—to limit animal waste; and (3) all assessments of animal behaviour were made by individuals blinded to the treatment group,[57].
EPM was conducted according to methods adapted from Marks et al.. The EPM was built from a plywood base painted blue with blue corrugated plastic floor and walls. The floor of the maze was composed of perpendicular interlocking arms (110 cm long × 10 cm wide) with two arms having 45 cm walls (closed arms) and two arms having no walls and a 0.5 cm edge (open arms), all elevated 45 cm from the ground. Trials began with the mouse in the central zone facing an open arm. Trials lasted 5 min and began 30 min after SCRA treatment. An arm entry was considered to be all four limbs leaving the central zone. Arm entries and the percent time spent in open versus closed arms were recorded by an observer blinded to the treatment group. Less time in the open arms and more time in the closed arms was used as a model of anxiogenic behaviour.

[10] = test system: male C57Bl/6 mice; test: Anti-nociception, tail flick assay; assay type: in vivo; conditions: 0.1–10 mg/kg i.p.; 20 min; 52 °C; % MPE 20 s
Method: as §2, §3

[11] = test system: male C57Bl/6 mice; test: Internal body temperature; assay type: in vivo; conditions: 0.1–10 mg/kg i.p.; 15 min
Method: as §2, §3

[12] = biological target: T1, hCB1R; test: biochemical; assay type: binding; conditions: for CB1R versus CB2R selectivity, receptor affinity: CB1R vs CB2R [^3H]CP55,940 binding; for CB1R [^3H]CP55,940 Emin: bottom of the concentration–response curve, mean ± SEM

T1 sequence (P21554 whole entry): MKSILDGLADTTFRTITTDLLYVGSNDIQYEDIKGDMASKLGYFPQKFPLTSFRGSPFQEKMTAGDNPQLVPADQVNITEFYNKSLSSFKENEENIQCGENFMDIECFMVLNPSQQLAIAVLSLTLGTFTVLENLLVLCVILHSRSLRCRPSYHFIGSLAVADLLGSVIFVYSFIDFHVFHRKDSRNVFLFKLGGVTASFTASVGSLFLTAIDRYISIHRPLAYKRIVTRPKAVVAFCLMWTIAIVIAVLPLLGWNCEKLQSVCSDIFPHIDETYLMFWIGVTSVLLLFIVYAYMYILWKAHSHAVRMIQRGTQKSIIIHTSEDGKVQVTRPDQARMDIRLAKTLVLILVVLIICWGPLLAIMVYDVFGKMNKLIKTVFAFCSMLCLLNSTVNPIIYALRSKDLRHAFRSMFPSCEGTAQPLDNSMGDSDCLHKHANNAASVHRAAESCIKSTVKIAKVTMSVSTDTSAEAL

Compound | Observed CB1R bias in cell culture [1] | Catalepsy response [2] | EC50 [3] | Emax [3] | βarrestin2 recruitment to CB1R, activity in words [3] | EC50 [4] | Emax [4] | CB2R bias between cAMP inhibition and βarrestin2 recruitment, ∆∆LogR (cAMP—βarr2), in words [5] | EC50 [6] | Emax [6] | βarrestin2 recruitment to CB2R, activity in words [6] | Ki [7] | CB2R [^3H]CP55,940 Emin [7] | EC50 [8] | Emax [8] | EPM time in the open arms [9] | EPM total arm entries [9] | Anti-nociceptive response, tail flick [10] | Body temperature (hypothermia) response [11] | Ki [12] | further results
COC(=O)[C@@H](NC(=O)c1nn(CCCCF)c2ccccc12)C(C)(C)C [4-fluoro MDMB-BINACA] | βarrestin2 | full agonist | 88 nM | 240 ± 10% | greater potency and produced supramaximal EMax responses | 10 nM | 87 ± 5.6% | significant bias toward the recruitment of βarrestin2 | 120 nM | 130 ± 8.2% | greater potency and produced supramaximal EMax responses | 0.41 nM | 57 ± 11 % | 0.56 nM | 95 ± 11% | approximately the same amount of time in the open arm as vehicle-treated mice | reduced total arm entries | full agonist | full agonist | 99 nM | CB1R bias between cAMP inhibition and βarrestin2 recruitment, ∆∆LogR (cAMP—βarr2), in words ([1]; CP55,940 as reference agonist, >0 cAMP bias, <0 βarrestin2 bias): significant bias toward the recruitment of βarrestin2; Affinity for CB2R compared with CP55,940, in words [7]: significantly greater affinity; EPM time in the central quadrant [9]: majority of their time in the central quadrant immobile; CB1R versus CB2R selectivity, receptor affinity [12]: greater affinity at CB2R relative to CB1R; CB1R [^3H]CP55,940 Emin [12]: 52 ± 7.5 %
CC(C)CCn1cc(C(=O)c2ccc3ccccc3c2)c2ccccc21 [JWH 018 2'-naphthyl-N-(3-methylbutyl) isomer] | G protein | partial agonist | > 10000 nM | 4.9 ± 0.51% | Inactive at βarrestin2 | 98 nM | 80 ± 9.1% | obligate cAMP-biased ligands | > 10000 nM | 6.1 ± 1.3% | Inactive at βarrestin2 | 7.5 nM | 54 ± 3.5 % | 0.52 nM | 110 ± 9.2% | greater amount of time spent in the open arms | did not change total arm entries | full agonist | did not change body temperature | 0.93 nM | CB1R versus CB2R selectivity, cAMP inhibition potency ([4]; CB1R vs CB2R): more potent at CB2R relative to CB1R; βarrestin2 recruitment to CB2R, activity in words ([6]; listed as JWH 018 2′-napthyl-N-(3-methylbutyl) isomer): inactive in βarrestin2; EPM open arm entries [9]: increased open arm entry; CB1R versus CB2R selectivity, receptor affinity [12]: greater affinity at CB1R relative to CB2R; CB1R [^3H]CP55,940 Emin [12]: 9.6 ± 2.7%
